PMC12533185 (Nature Communications, 2025)

Key:
[1] = tested on: Col2α1 mRNA; assay: Col2α1 mRNA expression in ATDC5 cells; format: cell-based, mouse; conditions: 10 μg/ml recombinant insulin, 7 days
[2] = tested on: mechanical loading PTOA mice; assay: Joint histology; format: in vivo, mouse; conditions: six weeks
[3] = tested on: mechanical loading PTOA mice; assay: Walking speed in PTOA mice; format: in vivo, mouse; conditions: after six weeks, MP 4 mg/kg weekly
[4] = tested on: mechanical loading PTOA mice; assay: OARSI score in PTOA mice; format: in vivo, mouse
[5] = tested on: mechanical loading PTOA mice; assay: Micro-CT: osteophyte size in PTOA mice; format: in vivo, mouse

| Compound | increase of Col2α1 expression [1] | joint histology [2] | walking speed, % of initial level [3] | OARSI score relative to MP&si-VPN@HA [4] | block of osteophytes formation and ectopic mineralization [5] |
| --- | --- | --- | --- | --- | --- |
| insulin: recombinant insulin used to induce chondrogenesis of ATDC5 cells | ~ 10 fold |  |  |  |  |
| C[C@H]1C[C@@H]2[C@H]([C@@H](O)C[C@@]3(C)[C@H]2CC[C@]3(O)C(=O)CO)[C@@]2(C)C=CC(=O)C=C12 [MP, methylprednisolone] |  | large proteoglycan loss and cartilage erosion | 18.22% | 5.67 fold | Neither MP nor si-VPN-2 could significantly block osteophytes formation and ectopic mineralization |
